{"source": "patent US4492651A", "about": "“Cyclic hexapeptides” (American Home Products Corporation, priority 1983, dated 1985)", "tested_on": "growth hormone release", "test": "suppression of growth hormone release in arginine stimulated rats (plasma GH by radioimmunoassay)", "format": "in vivo", "conditions": "Nembutal-anaesthetised albino male rats, blood 15 min after peptide", "method": "The potent inhibition of growth hormone secretion was established for the compounds of this invention by subjecting the representative product of Example 5 to the following standard procedure involving suppression of growth hormone release in arginine stimulated rats:\nAlbino male rats are administered Nembutal intraperitoneally at a dose of 50 milligrams per kilogram. Fifteen minutes later a subcutaneous injection of the product of Example 5 is administered. Ten minutes later 0.5 milliliters of arginine (300 milligrams per milliliter, pH 7.2) is injected into the heart. Five minutes after receipt of the arginine the rats are decapitated and blood is collected into Trasylol-EDTA. An appropriate aliquot is assayed for growth hormone (GH) by radioimmuno-assay. The results of the test procedure were compared with those obtained in the same manner with Compound 8 of Table 2 disclosed by Veber et al., loc. cit., as follows: […]", "note": "Square brackets hold non-standard residues; d marks the D form.", "data": [{"substance": "cyclo(PF[dW]KTF) [Compound 8]", "values": [{"measurement": "Plasma GH Levels", "setting": "dose of peptide 0.1 μg/kg subcutaneous", "value": "278 ± 89", "unit": "ng/mL"}, {"measurement": "Plasma GH Levels", "setting": "dose of peptide 1.0 μg/kg subcutaneous", "value": "169 ± 19", "unit": "ng/mL"}, {"measurement": "Plasma GH Levels", "setting": "dose of peptide 10.0 μg/kg subcutaneous", "value": "126 ± 6", "unit": "ng/mL"}]}]}
